Source: patent publication US9560989B2, “Method for determining the metabolic capacity of at least one enzyme” (HUMEDICS GMBH, priority 2011, dated 2017)

Key:
[1] = biological target: T1, CYP450 1A2 (Homo sapiens, UniProt P05177); conditions: in vivo
T1 sequence (P05177 1-516): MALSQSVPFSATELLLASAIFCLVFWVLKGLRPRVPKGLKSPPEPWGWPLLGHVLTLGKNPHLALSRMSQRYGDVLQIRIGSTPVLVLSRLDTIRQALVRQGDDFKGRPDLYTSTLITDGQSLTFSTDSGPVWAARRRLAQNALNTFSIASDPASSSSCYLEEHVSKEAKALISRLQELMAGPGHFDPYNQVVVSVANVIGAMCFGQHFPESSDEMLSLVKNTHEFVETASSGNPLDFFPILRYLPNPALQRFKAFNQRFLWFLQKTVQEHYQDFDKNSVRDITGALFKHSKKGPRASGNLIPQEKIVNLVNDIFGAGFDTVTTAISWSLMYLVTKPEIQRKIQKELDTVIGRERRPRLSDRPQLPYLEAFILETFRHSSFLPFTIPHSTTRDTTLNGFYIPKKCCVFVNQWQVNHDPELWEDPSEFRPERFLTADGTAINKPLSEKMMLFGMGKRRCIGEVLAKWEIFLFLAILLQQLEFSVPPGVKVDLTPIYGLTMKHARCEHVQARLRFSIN
Procedure: As substrate, ^13C-labeled methacetin at a dose of 2 mg per kilogram bodyweight of the individual was administered to the individual, wherein the release period was shorter than 60 seconds. In the body of the individual the ^13C-labeled methacetin was metabolized in the liver to paracetamol and ^13C-labeled CO2. The latter was detected as product in the air exhaled by the individual.
1 DOB here refers to a change of the ^13CO2-to-^12CO2-ratio by a thousandth above the natural ratio. The obtained measured values, illustrated in FIG. 1, are subsequently fitted with a suitable model function. […] From this model function—with a function equation familiar as such—different parameters can now be derived which specify the function. […]
As methacetin is almost solely metabolized in the liver, with the specified metabolism dynamics it is possible to directly and immediately trace the metabolism of the administered substrate by the enzymes existing in the liver. […] Here, for instance the value of the maximum product concentration in the exhaled air Pmax allows a statement to be made about the number of the healthy liver cells and the liver volume which is thus available for metabolism; whereas the rise in the form of the time constant(s) of the model function, fitted to the measured values, allows statements to be made about the entrance velocity of the substrate into the liver cells. […]

[2] = biological target: T1, CYP450 1A2; test: metabolic power of the liver determined by methacetin metabolism at different dosages; format: in vivo; design: metabolized to ^13CO2 and paracetamol in the liver cells by the enzyme CYP450 1A2; from tissue; host or cells: liver of the living individual (in vivo); conditions: FIG. 2
Procedure: The metabolic power was determined according to the formulae indicated above for different methacetin metabolisms observed after methacetin administration in different dosages. Specifically, 1 mg ^13C-labeled methacetin per kg bodyweight, 2 mg/kg, 4 mg/kg and 8 mg/kg were administered.
This non-linearity is expressed by the function L(n/M), wherein n denotes the number of substrate molecules, i.e. methacetin molecules, and M denotes the bodyweight in kg. This function L(n/M) forms part of the fitting curve represented in FIG. 2 by the interpolation curve between the single measurement points.

Q: For `COc1ccc(NC(C)=O)cc1` [13C-labeled methacetin], which “time point of half-maximum methacetine metabolism (t1/2)” value [1] is on record?
A: ~1.5 min

Q: And the “time point of maximum methacetine metabolism (tmax)” value [1]?
A: ~6.5 min

Q: And the “dependence of the measured signals on dosage” value ([2]; 1 mg per kg body weight)?
A: linear dependence

Q: And the “dependence of the measured signals on dosage” value ([2]; 2 mg/kg)?
A: linear dependence

Q: And the “deviation from the linear behaviour” value ([2]; 4 mg/kg)?
A: 10%

Q: And the “deviation from the linear behaviour” value ([2]; 8 mg/kg)?
A: more than 20%
